Measurements taken from US20250283073A1 (ORNA THERAPEUTICS, INC., priority 2021, published 2025).
Read-outs that look alike come from different tables or passages of the source.

B1: caprine kobuvirus: "IRES sourced from the indicated virus" in circular RNA constructs "encoding anti-murine CD19 CAR" (nucleic acid)
DNA: GTGGCCACGCCCGGGCCACCGATACTTCCCTTCACTCCTTCGGGACTGTTGGGGAGGAACACAACAGGGCTCCCCTGTTTTCCCATTCCTTCCCCCTTTTCCCAACCCCAACCGCCGTATCTGGTGGCGGCAAGACACACGGGTCTTTCCCTCTAAAGCACAATTGTGTGTGTGTCCCAGGTCCTCCTGCGTACGGTGCGGGAGTGCTCCCACCCAACTGTTGTAAGCCTGTCCAACGCGTCGTCCTGGCAAGACTATGACGTCGCATGTTCCGCTGCGGATGCCGACCGGGTAACCGGTTCCCCAGTGTGTGTAGTGCGATCTTCCAGGTCCTCCTGGTTGGCGTTGTCCAGAAACTGCTTCAGGTAAGTGGGGTGTGCCCAATCCCTACAAAGGTTGATTCTTTCACCACCTTAGGAATGCTCCGGAGGTACCCCAGCAACAGCTGGGATCTGACCGGAGGCTAATTGTCTACGGGTGGTGTTTCCTTTTTCTTTTCACACAACTCTACTGCGTACAACTCACTGACTATCCACTTGCTCTGTCACG
modifications: Description of Unknown: CK1.4; Caprine Kobuvirus variant sequence
B2: CK-739 IRES: "the IRES having the sequence of SEQ ID NO: 3282"; "had a long scanning tract" (nucleic acid)
DNA: B1 DNA
modifications: Description of Unknown: CK1.4; Caprine Kobuvirus variant sequence

Tests used:
[1] = cited from earlier work
[2] = LNP particle size (Z-average) and polydispersity index by dynamic light scattering; type: physicochemical; settings: LNPs with circular RNA, named by ionizable lipid; for Z-Average(nm): in PBS pH 7.4
Procedure: The microfluidic chamber is cleaned with ethanol and neMYSIS syringe pumps are prepared by loading a syringe with the RNA solution and another syringe with the ethanolic lipid. Both syringes are loaded and under the control of neMESYS software. The solutions are then applied to the mixing chip at an aqueous to organic phase ratio of 2 and a total flow rate of 22 ml/min (14.67 ml/min for RNA and 7.33 ml/min for the lipid solution. Both pumps are started synchronously. The mixer solution that flowed from the microfluidic chip is collected in 4×1 ml fractions with the first fraction being discarded as waste. The remaining solution containing the circRNA-transfer vehicles is exchanged by using G-25 mini desalting columns to 10 mM Tris-HCl, 1 mM EDTA, at pH 7.5, as described above. Following buffer exchange, the materials are characterized for size, and RNA entrapment through DLS analysis and Ribogreen assays, respectively.
(§1) Dialyzed LNPs were filtered using 0.2 μm filter. Prior to in vivo dosing, LNPs were diluted in PBS. LNP sizes were determined by dynamic light scattering. A cuvette with 1 mL of 20 μg/mL LNPs in PBS (pH 7.4) was measured for Z-average using the Malvern Panalytical Zetasizer Pro. The Z-average and polydispersity index were recorded.
as §1

[3] = RNA encapsulation / entrapment by Ribogreen assay; type: physicochemical; settings: LNPs with circular RNA, named by ionizable lipid
Procedure: A QUANT-ITT- RIBOGREEN® RNA assay (Invitrogen Corporation Carlsbad, CA) can be used to evaluate the encapsulation of circRNA by the nanoparticle composition. The samples are diluted to a concentration of approximately 5 μg/mL or 1 μg/mL in a TE buffer solution (10 mM Tris-HCl, 1 mM EDTA, pH 7.5). 50 μL of the diluted samples are transferred to a polystyrene 96 well plate and either 50 μL of TE buffer or 50 μL of a 2-4% Triton X-100 solution is added to the wells. The plate is incubated at a temperature of 37° C. for 15 minutes. The RIBOGREEN® reagent is diluted 1:100 or 1:200 in TE buffer, and 100 μL of this solution is added to each well. The fluorescence intensity can be measured using a fluorescence plate reader (Wallac Victor 1420 Multilabel Counter; Perkin Elmer, Waltham, MA) at an excitation wavelength of, for example, about 480 nm and an emission wavelength of, for example, about 520 nm. The fluorescence values of the reagent blank are subtracted from that of each of the samples and the percentage of free circRNA is determined by dividing the fluorescence intensity of the intact sample (without addition of Triton X-100) by the fluorescence value of the disrupted sample (caused by the addition of Triton X-100). C.
For transfer vehicle compositions including RNA, a QUANT-IT- RIBOGREEN® RNA assay (Invitrogen Corporation Carlsbad, CA) can be used to evaluate the encapsulation of RNA by the transfer vehicle composition. […] The fluorescence intensity can be measured using a fluorescence plate reader (Wallac Victor 1420 Multilablel Counter; Perkin Elmer, Waltham, MA) at an excitation wavelength of, for example, about 480 nm and an emission wavelength of, for example, about 520 nm. The fluorescence values of the reagent blank are subtracted from that of each of the samples and the percentage of free RNA is determined by dividing the fluorescence intensity of the intact sample (without addition of Triton X-100) by the fluorescence value of the disrupted sample (caused by the addition of Triton X-100). […]

[4] = In vivo FLuc expression by IVIS (whole body and organs) after LNP-circRNA dosing; design: species or system CD-1 or c57BL/6J mice; settings: mice, 0.5 mg/kg luciferase circRNA LNP i.v., named by ionizable lipid
Procedure: Circular or linear RNA encoding FLuc was generated and loaded into transfer vehicles with the following formulation: 50% ionizable Lipid 10b-15 represented by
10% DSPC, 1.5% PEG-DMG, 38.5% cholesterol. CD-1 mice were dosed at 0.2 mg/kg and luminescence was measured at 6 hours (live IVIS) and 24 hours (live IVIS and ex vivo IVIS). Total Flux (photons/second over a region of interest) of the liver, spleen, kidney, lung, and heart was measured (FIGS. 25 and 26).
Female CD-1 or female c57BL/6J mice ranging from 22-25 g were dosed at 0.5 mg/kg RNA intravenously. Six hours after injection, mice were injected intraperitoneally with 200 μL of D-luciferin at 15 mg/mL concentration. 5 minutes after injection, mice were anesthetized using isoflurane, and placed inside the IVIS Spectrum In Vivo Imaging System (Perkin Elmer) with dorsal side up. Post 10 minutes injection, mice were scanned for luminescence. Mice were euthanized and organs were extracted within 25 minutes of luciferin injection to scan for luminescence in liver, spleen, kidneys, lungs, and heart. Images (FIGS. 33A-B, 34A-B, 35A-B) were analyzed using Living Images (Perkin Elmer) software. Regions of interest were drawn to obtain flux and average radiance and analyzed for biodistribution of protein expression (FIG. 32A-B).

splenic immune cells = assay: Cre circRNA LNP transfection of splenic immune cells in Ai9 Cre reporter mice (tdTomato); type: in vivo; settings: 0.5 mg/kg Cre circRNA LNP i.v., 48 hr, named by ionizable lipid
Procedure: Circular RNAs encoding Cre recombinase (Cre) are encapsulated into lipid nanoparticles as previously described. Female, 6-8 week old B6.Cg-Gt(ROSA)26Sortm9(CAG-tdTomato)Hze/J (Ai9) mice were dosed with lipid nanoparticles at 0.5 mg/kg RNA intravenously. Fluorescent tdTomato protein was transcribed and translated in Ai9 mice upon Cre recombination, meaning circular RNAs have been delivered to and translated in tdTomato+ cells. After 48 hr, mice were euthanized and the spleens were harvested, processed into a single cell suspension, and stained with various fluorophore-conjugated antibodies for immunophenotyping via flow cytometry.
Ai9 mice (B6.Cg-Gt(ROSA)26Sortm9(CAG-tdTomato)Hze/J, female, 6-8 weeks, n=3 per group) were injected i.v. with 0.5 mg/kg Cre circRNA LNPs or PBS. Ai9 mice transcribe and translate the fluorescent reporter tdTomato upon Cre recombination; meaning cells which are tdTomato+ have successfully been transfected with Cre circRNA. […] Flow cytometry was performed using an Attune Nxt Flow Cytometer (Thermo).

1C1C7 cells [5] = assay: Anti-murine CD19 CAR expression in lipotransfected 1C1C7 cells; type: cell-based; settings: 24 hours after lipotransfection, circRNA named by IRES source virus
Procedure: After 24 hours, 1C1C7 cells were incubated with His-tagged recombinant murine CD19 (Sino Biological) protein, then stained with a secondary anti-His antibody. Afterwards, the cells were analyzed via flow cytometry.

1C1C7 cells [6] = assay: Gaussia luciferase expression and stability by IRES in 1C1C7 cells; settings: 1C1C7, 24 and 48 hours

| Molecule | PDI [2] | Z-Average(nm) [2] [nm] | RNA Entrapment(%) [3] [%] | other results |
| --- | --- | --- | --- | --- |
| CCCCCCCCC(CCCCCCCC)COC(=O)CCCCN(CCCCO)CCCCC(=O)OCC(CCCCCCCC)CCCCCCCC [III-15] | – | – | – | pKa ([1]; Table 3, Representative Compounds of Formula (III)): 6.14 |
| CCCCCCCCC(CCCCCC)C(=O)OCCCCCCN(CCCCCCOC(=O)C(CCCCCC)CCCCCCCC)CCCn1ccnc1 (centres unmarked) [Lipid 10a-26, ((3-(1H-imidazol-1-yl)propyl)azanediyl)bis(hexane-6,1-diyl) bis(2-hexyldecanoate)] | 0.04 | 84 | 96 | whole-body total flux (IVIS) ([4]; 6 hours): increased whole-body total flux; ex vivo IVIS tissue expression and spleen to liver ratio [4]: increased overall expression |
| CCCCCCCCCOC(=O)CCCCCCCN(CCO)CCCCCCCC(=O)OC(CCCCCCCC)CCCCCCCC [Lipid 10b-15] | – | – | – | ex vivo IVIS tissue expression and spleen to liver ratio [4]: maintaining the desired spleen to liver ratios; splenic immune cells expressing tdTomato (splenic immune cells): effective at delivering circular RNAs to many splenic immune cell subsets |
| CCCCCCCCCCCCCCSCCOC(=O)CCN(CCCn1ccnc1C)CCC(=O)OCCSCCCCCCCCCCCCCC [Lipid 22-S14, bis(2-(tetradecylthio)ethyl) 3,3′-((3-(2-methyl-1H-imidazol-1-yl)propyl)azanediyl)dipropionate] | 0.05 | 64 | 97 | – |
| CCCCCCCCCCCCCCSCCOC(=O)CCN(CCCn1ccnc1)CCC(=O)OCCSCCCCCCCCCCCCCC [Lipid 93-S14, bis(2-(tetradecylthio)ethyl) 3,3′-((3-(1H-imidazol-1-yl)propyl)azanediyl)dipropionate] | 0.04 | 74 | 95 | – |
| CCCCCCCCOC(=O)CCCCCCCCCN(CCCCCCCCCC(=O)OCCCCCCCC)CCN(C)C [Lipid I-13] | – | – | – | pKa ([1]; Table 1, Representative Lipids of Formula I): 6.15 |
| B1 | – | – | – | anti-mouse CD19 CAR expression (1C1C7 cells [5]): capable of driving expression of an anti-mouse CD19 CAR |
| B2 | – | – | – | expression after terminal or scanning tract deletions of the IRES (1C1C7 cells [6]): relatively unaffected by deletions in the scanning tract |
